Experiments:
Type in all cases: cell-based
HepG2 cells = experiment: In vitro cytotoxicity, SRB cell viability assay, HepG2; conditions: Homo sapiens, 48 h, mean ± SD, triplicate
Experimental: (§1) For Hepatocarcinoma (HepG2), human lung carcinoma (LU-1), human colorectal adenocarcinoma (SW480) and human normal embryonic kidney (HEK-293) cell lines, the culture medium was Dulbecco’s Modified Eagle’s Medium (DMEM) (Hyclone, USA). The medium supplementation included 10% fetal bovine serum (Hyclone), 100 units/ml penicillin, and 100 μg/ml streptomycin at 37 °C in an atmosphere with 5% CO2 and 95% humidity. For the human leukemia (HL-60) cell line, the maintenance was performed in RPMI-1640 medium (Life Technologies, Inc.) supplemented with 10% heat-inactivated fetal bovine serum (Hyclone) and 100 units/ml penicillin, and 100 μg/ml streptomycin.
(§2) Cell viability assay was conducted using SRB method for HepG2, LU-1, SW480 and HEK-293 cell lines, based on the measurement of protein content. Cells were plated with 180 μl growth medium into 96-microwell plates (4 × 10^4 cells per well) and allowed to grow overnight. Test compounds at various concentrations including 20 μM; 4 μM; 0.8 μM; 0.16 μM with incubation medium were supplemented and cultivated for additional 48 h in the same conditions. Afterwards, the removal of the medium was performed and cold 20% (wt/vol) TCA was used to fix the cell monolayer attached to the wall for 1 h at 4 °C, followed by staining with 1X SRB staining solution at room temperature for 30 min and the removal of the residual dye via repeated washing with 1% (v/v) acetic acid. For OD determination at 515 nm, an ELISA Plate Reader (Bio-Rad) was utilized to analyze the protein-bound dye, which dissolved in 10 mM Tris base solution. […] The cell survival rate (SR) was calculated as SR = [(ODt − OD0)/(ODc − OD0)] × 100, where the subscript 0, t and c represent time-zero, […] and the DMSO control sample.

LU-1 cells = experiment: In vitro cytotoxicity, SRB cell viability assay, LU-1; conditions: Homo sapiens, Lu1; LU-1, SRB, 48 h, mean ± SD, triplicate
Experimental: as §1, §2

SW480 cells = experiment: In vitro cytotoxicity, SRB cell viability assay, SW480; conditions: Homo sapiens, 48 h, mean ± SD, triplicate
Experimental: as §1, §2

HL-60 cells = experiment: In vitro cytotoxicity, MTT assay, HL-60; conditions: Homo sapiens; HL-60, MTT, 72 h, mean ± SD, triplicate
Experimental: as §1
For HL-60 cell line, 5 × 10^3 cells/well were seeded in 96-multiwell plate and cultured overnight. The test compounds were serially diluted to the wells with concentrations ranging at 20 μM; 4 μM; 0.8 μM and 0.16 μM then incubated for 72 h. Thereafter, each well was added with 10 μl of MTT (5 mg/ml in 1X PBS), followed by incubation for 3 h and centrifugation at 1,500 rpm for 10 min. The media were discarded then added 150 μl DMSO to each well. Optical density was measured using a microplate reader at 540 nm.

HEK-293 cells = experiment: In vitro cytotoxicity, SRB cell viability assay, normal kidney HEK-293; conditions: Homo sapiens, HEK293, HEK-293 normal kidney cells, 48 h, mean ± SD, triplicate
Experimental: as §1, §2

Compound | IC50 (HepG2 cells) [µM] | IC50 (LU-1 cells) [µM] | IC50 (SW480 cells) [µM] | IC50 (HL-60 cells) [µM] | IC50 (HEK-293 cells) [µM]
O=C1Nc2ccccc2/C1=C1/Nc2ccccc2C1=O [Compound 1, indirubin] | > 20 | > 20 | > 20 | > 20 | > 20
O=C1Nc2ccccc2C1=C1Nc2ccccc2C1=NO [Compound 2, indirubin-3′-oxime, reference compound] | 16 ± 0.62 | 16.4 ± 1.05 | 15.7 ± 0.74 | 16.5 ± 0.94 | 14.2 ± 0.71
C#CCN1C(=O)/C(=C2\Nc3ccccc3C2=O)c2ccccc21 [Compound 3] | > 20 | > 20 | > 20 | > 20 | > 20
C#CCN1C(=O)/C(=C2\Nc3ccccc3\C2=N/O)c2ccccc21 [Compound 4] | > 20 | 19.6 ± 1.23 | 18.6 ± 0.91 | 15.3 ± 0.35 | 16.2 ± 0.33
O=C(/C=C/c1ccccc1)c1ccc(OCCn2cc(CN3C(=O)/C(=C4\Nc5ccccc5\C4=N/O)c4ccccc43)nn2)cc1O [Compound 6a] | 3.56 ± 0.75 | 2.26 ± 0.32 | 3.36 ± 0.64 | 2.39 ± 0.46 | 3.21 ± 0.43
COc1cc(/C=C/C(=O)c2ccc(OCCn3cc(CN4C(=O)/C(=C5\Nc6ccccc6\C5=N/O)c5ccccc54)nn3)cc2O)cc(OC)c1OC [Compound 6b] | > 20 | > 20 | > 20 | > 20 | > 20
COc1ccccc1/C=C/C(=O)c1ccc(OCCn2cc(CN3C(=O)/C(=C4\Nc5ccccc5\C4=N/O)c4ccccc43)nn2)cc1O [Compound 6c] | 3.38 ± 0.68 | 2.99 ± 0.55 | 3.8 ± 0.52 | 1.43 ± 0.22 | 1.19 ± 0.12
COc1cccc(/C=C/C(=O)c2ccc(OCCn3cc(CN4C(=O)/C(=C5\Nc6ccccc6\C5=N/O)c5ccccc54)nn3)cc2O)c1 [Compound 6d] | 3.76 ± 0.75 | 2.85 ± 0.74 | 4.46 ± 1.18 | 3.4 ± 0.76 | 2.01 ± 0.64
COc1ccc(/C=C/C(=O)c2ccc(OCCn3cc(CN4C(=O)/C(=C5\Nc6ccccc6\C5=N/O)c5ccccc54)nn3)cc2O)cc1 [Compound 6e] | 4.62 ± 1.07 | 3.28 ± 0.48 | 4.66 ± 0.92 | 3.27 ± 0.37 | 6.98 ± 0.25
CCOc1ccccc1/C=C/C(=O)c1ccc(OCCn2cc(CN3C(=O)/C(=C4\Nc5ccccc5\C4=N/O)c4ccccc43)nn2)cc1O [Compound 6f] | 2.01 ± 0.43 | 1.3 ± 0.14 | 2.54 ± 0.25 | 0.98 ± 0.12 | 1.03 ± 0.11
CCOc1cccc(/C=C/C(=O)c2ccc(OCCn3cc(CN4C(=O)/C(=C5\Nc6ccccc6\C5=N/O)c5ccccc54)nn3)cc2O)c1 [Compound 6g] | 5.68 ± 0.71 | 3.96 ± 0.62 | 4.1 ± 0.57 | 4.82 ± 0.46 | 1.8 ± 0.21
CCOc1ccc(/C=C/C(=O)c2ccc(OCCn3cc(CN4C(=O)/C(=C5\Nc6ccccc6\C5=N/O)c5ccccc54)nn3)cc2O)cc1 [Compound 6h] | 14.2 ± 1.79 | 8.74 ± 0.55 | 14.1 ± 1.18 | 6.5 ± 0.98 | 9.74 ± 0.53
CCCOc1ccccc1/C=C/C(=O)c1ccc(OCCn2cc(CN3C(=O)/C(=C4\Nc5ccccc5\C4=N/O)c4ccccc43)nn2)cc1O [Compound 6i] | 2.28 ± 0.12 | 2.07 ± 0.26 | 3.43 ± 0.84 | 1.28 ± 0.34 | 0.85 ± 0.05
CCCOc1cccc(/C=C/C(=O)c2ccc(OCCn3cc(CN4C(=O)/C(=C5\Nc6ccccc6\C5=N/O)c5ccccc54)nn3)cc2O)c1 [Compound 6k] | 2.95 ± 0.19 | 2.5 ± 0.34 | 2.91 ± 0.13 | 1.29 ± 0.14 | 1.92 ± 0.17
CCCOc1ccc(/C=C/C(=O)c2ccc(OCCn3cc(CN4C(=O)/C(=C5\Nc6ccccc6\C5=N/O)c5ccccc54)nn3)cc2O)cc1 [Compound 6l] | 3.28 ± 0.25 | 2.07 ± 0.31 | 3.03 ± 0.11 | 1.28 ± 0.16 | 7.12 ± 0.18
CN(C)CCn1cc(CN2C(=O)/C(=C3\Nc4ccccc4\C3=N/O)c3ccccc32)nn1 [Compound 6m] | 15.3 ± 0.17 | 8.74 ± 1.06 | 14.4 ± 0.72 | 16 ± 0.38 | 11.9 ± 1.75
O=C1/C(=C2\Nc3ccccc3\C2=N/O)c2ccccc2N1Cc1cn(CCN2CCCCC2)nn1 [Compound 6n] | 11.7 ± 0.23 | 10.1 ± 0.44 | 12.5 ± 0.53 | 10.4 ± 0.84 | 9.52 ± 0.07
O=C1/C(=C2\Nc3ccccc3\C2=N/O)c2ccccc2N1Cc1cn(CCn2ccnc2)nn1 [Compound 6o] | 11.7 ± 0.26 | 8.8 ± 0.38 | 11.2 ± 0.76 | 9.39 ± 0.45 | 5.89 ± 0.75
O=C1/C(=C2\Nc3ccccc3\C2=N/O)c2ccccc2N1Cc1cn(CCN2CCOCC2)nn1 [Compound 6p] | 10.6 ± 0.79 | 8.61 ± 0.57 | 11.7 ± 0.48 | 11.2 ± 1.04 | 7.72 ± 0.42
Cc1c2ccncc2c(C)c2c1[nH]c1ccccc12 [Ellipticine, reference compound] | 1.93 ± 0.54 | 2.5 ± 0.82 | 1.76 ± 0.63 | 2.19 ± 1.12 | 0.32 ± 0.03
